Data reported in PubChem BioAssay (NCI).
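Cells were grown in 96-well plates and exposed to each compound for 48 hours at five concentrations; endpoints were interpolated linearly between bracketing concentrations, or set to the highest concentration if not reached. The concentration for 50% growth inhibition is given as GI50. TGI marks complete inhibition of growth.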

How the values were obtained:
Test in all cases: DTP human tumour cell line panel, 48 h
[1] = system: CAKI-1 renal
[2] = system: HOP-62 NSCLC
[3] = system: IGROV1 ovarian
[4] = system: LOX IMVI melanoma
[5] = system: MDA-MB-231 breast
[6] = system: NCI-H226 lung
[7] = system: PC-3 prostate
[8] = system: SK-MEL-28 melanoma
[9] = system: SNB-75 CNS
[10] = system: T-47D breast

Structure (SMILES) | GI50 [1] [µM] | TGI [1] [µM] | GI50 [2] [µM] | TGI [2] [µM] | GI50 [3] [µM] | GI50 [4] [µM] | TGI [4] [µM] | GI50 [5] [µM] | TGI [5] [µM] | GI50 [6] [µM] | TGI [6] [µM] | GI50 [7] [µM] | TGI [7] [µM] | GI50 [8] [µM] | TGI [8] [µM] | GI50 [9] [µM] | GI50 [10] [µM] | TGI [10] [µM] | TGI [3] [µM] | TGI [9] [µM]
COc1cc(OC)c(/C=C/C(=O)c2c(OC)cccc2OC)c(OC)c1 | 0.463 | 97 | 0.742 | > 100 | 0.497 | 0.566 | > 100 | 1.07 | > 100 | 1.99 | > 100 | 1.17 | > 100 | 1.01 | > 21.3 | 0.339 | 0.383 | > 100 |  | 
CN(C)CCCn1c2c(c3ccccc3c1=O)C(=O)c1ccccc1-2 | 0.583 | 2.44 | 1.74 | 6.61 | 2.29 | 0.937 | 3.19 | 1.74 | 5.09 | 1.18 | 2.74 | 2.27 | 13.7 | 3.97 | 18.3 | 14.2 | 3.01 | 14.8 | > 100 | 33.1
COc1ccc(C(=O)COc2cccc(/C=C3\COc4ccc5ccccc5c4C3=O)c2)cc1 | 8.24 | 78.3 | 29.7 | > 100 | 17.4 | 5.41 | > 100 | 6.97 | > 100 | 15.4 | > 100 | 3.5 | > 100 | 47.8 | > 100 | 2.39 | 3.88 | > 100 | > 100 | 11.6
O=C(c1cccc(O)c1O)c1cn(Cc2ccc(F)cc2)c2cccc(O)c12 | 4.13 | 18.5 | 5.41 | 19.5 | 0.833 | 2.58 | 16.1 | 5.83 | 40.2 | 15.9 | 43.8 | 6.92 | 26.7 | 6.01 | 19.5 | 2.49 | 3.16 | 16.2 | 7.85 | 12
NC(=S)N/N=C/c1ccc(OC(=O)COc2ccc(Cl)cc2)cn1 | 4.3 | 97.4 | 14.6 | 91.1 | 16.4 | 3.18 | > 100 | 6.61 | > 100 | 13.4 | 48.9 | 4.67 | > 100 | 36.4 | > 100 |  | 8.62 | > 100 | > 100 | > 100
Fc1cc(F)c(COc2cc(Cn3cnc4c(Cl)nc(Cl)nc43)ccc2C23CC4CC(CC(C4)C2)C3)cc1F | 10.4 | 22.8 | 17.4 | 31.2 | 13.2 | 1.76 | 3.91 | 17.5 | 32.7 | 2.15 | 4.51 | 19.3 | 33.8 | 18.2 | 37.4 | 21.7 | 16.7 | 45.1 | 27.5 | 52.1
COc1cc2oc(-c3ccc(O)cc3)cc(=O)c2c(OC)c1OC |  | > 100 |  | > 100 |  |  | > 100 |  | > 100 |  | > 100 |  | > 100 |  | > 100 |  |  | > 100 | > 100 | > 100
CCOC(=O)Sc1ncnc2nc[nH]c12 | 0.579 | 6.31 | 0.808 | > 100 | 6.69 | 0.348 | > 100 | 3.88 | > 100 | 4.46 | > 100 | 4.07 | > 100 | 43.7 | > 100 | 0.747 | 0.799 | > 100 | > 100 | > 100
CN/N=C(/CCN1CCCC1)CC(c1ccccc1)c1c(O)c2ccccc2oc1=O (configuration not stated) |  | > 100 |  | > 100 |  |  | > 100 |  | > 100 |  | > 100 |  | > 100 |  | > 100 |  |  | > 100 | > 100 | > 31.6
CCN(CC)c1sc(N(CC)CC)c2c1SSSSS2 | 1.49 | 3.78 | 2.61 | 4.99 | 0.715 | 1.01 | 3.31 | 0.894 | 2.41 | 1.75 | 3.46 | 2.05 | 4.26 | 1.55 | 3.92 | 2.71 | 3.17 | > 100 | 2.77 | 4.52
COC(=O)Nc1nc2ccc(Oc3ccc(NC(=O)Nc4ccccc4)cc3)cc2[nH]1 | 3.4 | > 21.7 | 0.109 | 2.52 | 0.665 | 0.178 | > 9.6 | 0.32 | 10.3 | 0.18 | 5.21 | 0.15 | > 9.6 | 0.348 | 6.4 | 0.115 | 0.131 | 21.7 | > 10.9 | 7.15
CCN(CC)CCCC(C)Nc1c(C)cnc2cc(Cl)c(C)cc12 (configuration not stated) | 10 | 26.6 | 18.2 | 32.9 | 25.9 | 2.17 | 10.7 | 2.71 | 10.4 | 4.57 | 15 | 9.69 | 26.4 | 2.49 | 8.99 | 17.8 | 22.9 | > 61.7 | 74.7 | 36
COc1cc(C2=NN(C(C)=O)C(c3ccc(OC(C)=O)cc3OC(C)=O)O2)c(OC(C)=O)c2ccccc12 (configuration not stated) | 0.465 | > 21.1 | 0.565 | 14.6 | 0.82 | 0.374 | 11.7 | 0.543 | > 56.4 | 1.15 | 14.4 | 0.753 | 35.4 | 1.27 | 23.2 | 2.28 | 1.12 | 9.97 | 42.6 | 29.6
Cc1cc(SCC(=O)c2ccccc2)nc2ccccc12 |  | > 100 |  | > 100 |  |  | > 100 |  | > 100 |  | > 100 |  | > 100 |  | > 100 |  |  | > 100 | > 100 | > 100
